Test results published in patent US20260102383A1, “LPAR1 Inhibitors” (AbbVie Inc., priority 2024, published 2026).
Like-named read-outs stand apart in the source and are kept apart here. Marks after values point to notes of the source that are not given here. Blank lines part the entries; values can stand above or below the compound they belong to.

Experiments:
[1] = test system: disease-relevant skin proteins in bleomycin-induced skin fibrosis; test: Bleomycin-evoked skin fibrosis model, skin protein levels (ELISA, MSD U-plex); type: in vivo, C57B6J mice
Protocol: (§1) The activity of Compound 15 was measured using a bleomycin-evoked skin fibrosis model.
(§2) For the bleomycin model of skin fibrosis, C57B6J mice were purchased at 9 to 11 weeks of age. Upon arriving, mice were group-housed 10 per cage in individually ventilated cages, with a normal 12:12 hour light: dark cycle. Animals were acclimated to the animal facilities for a period of at least 10 days prior to initiation of bleomycin model studies; mouse ears were tagged for animal identification. At the initiation of bleomycin administration, 93M diet gel was also added to the cages of all mice and available ad libitum for the duration of the experiment. For all animals studied, food and water were available ad libitum.
(§3) The upper back region of the mouse was shaved and two circles (˜1 cm diameter) were drawn onto the skin to identify the location for bleomycin injection. To induce skin fibrosis, mice received subcutaneous injections of bleomycin (10 units/kg) or phosphate-buffered saline (PBS) during Week 1 (D0-D4) and week 2 (D7-D10) at a volume of 100 μL into the two marked injection sites (for a total volume of 200 μL). […] For pharmacological assessment, mice received either vehicle or 1×, 3×, or 10×mg/kg of a dose of Compound 15 orally, twice daily, from Day 10 to 28. On Day 28, animals were humanely euthanized, and plasma and 2 to 8 mm back skin biopsy punches collected. The ALK5 inhibitor, SB-525334 was also included in the study as a positive control. SB-525334 was administered at a dose of 4.5×mg/kg following the same dosing regimen described for Compound 15. All treatments were administered at a volume of 1×mL/kg body weight.
For protein measurement, ½ of an 8-mm biopsy punch was homogenized in 500 μL DI water containing extraction buffer and cell extraction enhancer solution, using a Bead Ruptor 24 with CryoCool (OMNI). ELISA assays were performed on the lysates to measure Fibronectin and Procollagen1a1 and a multiplexed MSD U-plex assay was performed to measure MCP-1 and CXCL1. All kits were run according to the manufacturers' instructions. Skin protein levels were normalized to total protein in the lysate and expressed per milligram of total protein.
(§4) Data from gene and protein measurements were analyzed using GraphPad Prism 7 (GraphPad Software, San Diego, CA, USA). Group comparisons were conducted by a one-way ANOVA, followed by Dunnett's multiple comparisons test.
(§5) In the subcutaneous bleomycin-induced skin fibrosis mouse model, Compound 15 was assessed after the skin fibrosis was established during Days 1 through 10. Compound 15 was administered twice daily by oral gavage from Day 10 through Day 28 as described in Table C.

[2] = test system: pro-fibrotic and pro-inflammatory genes in bleomycin-induced skin fibrosis; test: Bleomycin-evoked skin fibrosis model, skin gene expression (TaqMan); type: in vivo, C57B6J mice; settings: for % Inhibition by Concentration vs Bleo (mean ± SEM), Col1a1 gene / % Inhibition by Concentration vs Bleo (mean ± SEM), Col6a3 gene / % Inhibition by Concentration vs Bleo (mean ± SEM), Col8a1 gene / % Inhibition by Concentration vs Bleo (mean ± SEM), Fn1 gene / % Inhibition by Concentration vs Bleo (mean ± SEM), Lpar1 gene / % Inhibition by Concentration vs Bleo (mean ± SEM), Mmp2 gene / % Inhibition by Concentration vs Bleo (mean ± SEM), Serpine1 gene / % Inhibition by Concentration vs Bleo (mean ± SEM), Timp1 gene: skin
Protocol: as §1, §2, §3
For tissue gene expression measurement, an 8-mm skin biopsy punch was homogenized in 300 μL RLT buffer containing β-mercaptoethanol (1:100) and using a QIAgen TissueLyser II. RNA was then extracted using the RNeasy Fibrous Mini Kit and purified RNA analyzed for gene expression using TaqMan Kits (Thermofisher) with indicated probes (Table B). Expression data for each sample were normalized to the housekeeping gene (Rplp0) and expressed as fold change relative to the sham treated mice.
as §4, §5

[3] = target: T1, human LPAR1 (Homo sapiens, UniProt Q92633); test: Arrestin assay (Arrestin Reporter EDG2-bla U2OS), inhibition of LPA-stimulated signal; type: cell-based; settings: TangoEDG2-bla U2OS cells expressing human LPAR1, 0.25 μM LPA
T1 construct: host or cells: TangoEDG2-bla U2OS cells
Summary of the method: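 TangoEDG2-bla U2OS cells (1×10^4/well, plated 18-20 h) were preincubated 1 h at 37 °C with compound (12-point, 3-fold, 10 μM to 0.00006 μM), then stimulated 3 h with 0.25 μM LPA final. LiveBLAzer FRET B/G 460/530 nm emission ratio gave % inhibition; IC50 from 4-parameter variable-slope fit.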

[4] = 1x mg/kg PO BID Day 10-28, vs bleomycin/vehicle
[5] = 3x mg/kg PO BID Day 10-28, vs bleomycin/vehicle
[6] = 10x mg/kg PO BID Day 10-28, vs bleomycin/vehicle
[7] = read-out: Arrestin Reporter EDG2-bla U2OS Human Merged IC50
[8] = 4.5x mg/kg PO BID Day 10-28, vs bleomycin/vehicle

T1 sequence (Q92633 whole entry): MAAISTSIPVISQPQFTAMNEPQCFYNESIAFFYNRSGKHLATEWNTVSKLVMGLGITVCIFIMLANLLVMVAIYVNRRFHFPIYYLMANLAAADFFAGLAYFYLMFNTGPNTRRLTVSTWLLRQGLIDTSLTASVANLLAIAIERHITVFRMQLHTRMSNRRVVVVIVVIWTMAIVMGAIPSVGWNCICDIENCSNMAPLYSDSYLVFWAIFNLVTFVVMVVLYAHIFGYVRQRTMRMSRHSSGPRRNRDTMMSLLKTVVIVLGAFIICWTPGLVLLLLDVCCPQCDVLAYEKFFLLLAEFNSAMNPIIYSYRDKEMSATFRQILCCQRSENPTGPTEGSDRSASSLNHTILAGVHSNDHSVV

Compound: CC(C)c1ccnn1C1(C(=O)Nc2ccc(Cl)cc2OC(F)F)CCN(C[C@H](C(=O)O)C2CCOCC2)CC1 (single isomer, unassigned) [Compound 15]
% Inhibition by Drug Treatment, CXCL1 protein [1, 4]: 56** % | % Inhibition by Drug Treatment, Fibronectin protein [1, 4]: 29% | % Inhibition by Drug Treatment, MCP-1 protein [1, 4]: 50** % | % Inhibition by Drug Treatment, Procollagen1a1 protein [1, 4]: 67*** % | % Inhibition by Drug Treatment, CXCL1 protein [1, 5]: 71*** % | % Inhibition by Drug Treatment, Fibronectin protein [1, 5]: 46*** % | % Inhibition by Drug Treatment, MCP-1 protein [1, 5]: 59** % | % Inhibition by Drug Treatment, Procollagen1a1 protein [1, 5]: 74*** % | % Inhibition by Drug Treatment, CXCL1 protein [1, 6]: 76*** % | % Inhibition by Drug Treatment, Fibronectin protein [1, 6]: 46*** % | % Inhibition by Drug Treatment, MCP-1 protein [1, 6]: 73*** % | % Inhibition by Drug Treatment, Procollagen1a1 protein [1, 6]: 77*** % | key measures of skin inflammation and fibrosis ([2]; mice, 1×, 3×, and 10×mg/kg): significantly reduced | % Inhibition by Concentration vs Bleo (mean ± SEM), Col1a1 gene ([2]; 1x mg/kg PO BID Day 10-28): 58 ± 12 % | % Inhibition by Concentration vs Bleo (mean ± SEM), Col6a3 gene ([2]; 1x mg/kg PO BID Day 10-28): 62 ± 24% | % Inhibition by Concentration vs Bleo (mean ± SEM), Col8a1 gene ([2]; 1x mg/kg PO BID Day 10-28): 16 ± 23% | % Inhibition by Concentration vs Bleo (mean ± SEM), Fn1 gene ([2]; 1x mg/kg PO BID Day 10-28): 31 ± 20% | % Inhibition by Concentration vs Bleo (mean ± SEM), Lpar1 gene ([2]; 1x mg/kg PO BID Day 10-28): 54 ± 24% | % Inhibition by Concentration vs Bleo (mean ± SEM), Mmp2 gene ([2]; 1x mg/kg PO BID Day 10-28): 39 ± 26% | % Inhibition by Concentration vs Bleo (mean ± SEM), Serpine1 gene ([2]; 1x mg/kg PO BID Day 10-28): 28 ± 31% | % Inhibition by Concentration vs Bleo (mean ± SEM), Timp1 gene ([2]; 1x mg/kg PO BID Day 10-28): 34 ± 21% | % Inhibition by Concentration vs Bleo (mean ± SEM), Col1a1 gene ([2]; 3x mg/kg PO BID Day 10-28): 77 ± 8 % | % Inhibition by Concentration vs Bleo (mean ± SEM), Col6a3 gene ([2]; 3x mg/kg PO BID Day 10-28): 108 ± 9 % | % Inhibition by Concentration vs Bleo (mean ± SEM), Col8a1 gene ([2]; 3x mg/kg PO BID Day 10-28): 43 ± 14% | % Inhibition by Concentration vs Bleo (mean ± SEM), Fn1 gene ([2]; 3x mg/kg PO BID Day 10-28): 76 ± 5 % | % Inhibition by Concentration vs Bleo (mean ± SEM), Lpar1 gene ([2]; 3x mg/kg PO BID Day 10-28): 97 ± 9 % | % Inhibition by Concentration vs Bleo (mean ± SEM), Mmp2 gene ([2]; 3x mg/kg PO BID Day 10-28): 81 ± 15 % | % Inhibition by Concentration vs Bleo (mean ± SEM), Serpine1 gene ([2]; 3x mg/kg PO BID Day 10-28): 88 ± 5 % | % Inhibition by Concentration vs Bleo (mean ± SEM), Timp1 gene ([2]; 3x mg/kg PO BID Day 10-28): 81 ± 7 % | % Inhibition by Concentration vs Bleo (mean ± SEM), Col1a1 gene ([2]; 10x mg/kg PO BID Day 10-28): 88 ± 6 % | % Inhibition by Concentration vs Bleo (mean ± SEM), Col6a3 gene ([2]; 10x mg/kg PO BID Day 10-28): 117 ± 8 % | % Inhibition by Concentration vs Bleo (mean ± SEM), Col8a1 gene ([2]; 10x mg/kg PO BID Day 10-28): 55 ± 11 % | % Inhibition by Concentration vs Bleo (mean ± SEM), Fn1 gene ([2]; 10x mg/kg PO BID Day 10-28): 75 ± 4 % | % Inhibition by Concentration vs Bleo (mean ± SEM), Lpar1 gene ([2]; 10x mg/kg PO BID Day 10-28): 95 ± 8 % | % Inhibition by Concentration vs Bleo (mean ± SEM), Mmp2 gene ([2]; 10x mg/kg PO BID Day 10-28): 55 ± 12% | % Inhibition by Concentration vs Bleo (mean ± SEM), Serpine1 gene ([2]; 10x mg/kg PO BID Day 10-28): 75 ± 9 % | % Inhibition by Concentration vs Bleo (mean ± SEM), Timp1 gene ([2]; 10x mg/kg PO BID Day 10-28): 84 ± 5 % | IC50 ([3]; read-out: Arrestin Reporter EDG2-bla U2OS Human IC50): 47.8 nM

Compound: CCOC[C@@H](CN1CCC(C(=O)Nc2ccc(Cl)cc2OC(F)F)(n2nccc2C(C)C)CC1)C(=O)O [Compound 231, (2R)-2-[[4-[[4-chloro-2-(difluoromethoxy)phenyl]carbamoyl]-4-(5-isopropylpyrazol-1-yl)-1-piperidyl]methyl]-3-ethoxy-propanoic acid]
IC50 [3, 7]: 14.2 nM

Compound: CC(C)c1ccnn1C1(C(=O)Nc2ccc(Cl)cc2OC(F)F)CCN(CC(COCC(F)(F)F)C(=O)O)CC1 (stereo not drawn) [Compound 232, 2-[[4-[[4-chloro-2-(difluoromethoxy)phenyl]carbamoyl]-4-(5-isopropylpyrazol-1-yl)-1-piperidyl]methyl]-3-(2.2,2-trifluoroethoxy)propanoic acid]
IC50 [3, 7]: 8.37 nM

Compound: CC(C)c1ccnn1C1(C(=O)Nc2ccc(Cl)cc2OC(F)F)CCN(C[C@@H](COCC(F)(F)F)C(=O)O)CC1 [Compound 233, (2S)-2-[[4-[[4-chloro-2-(difluoromethoxy)phenyl]carbamoyl]-4-(5-isopropylpyrazol-1-yl)-1-piperidyl]methyl]-3-(2,2,2-trifluoroethoxy)propanoic acid]
IC50 [3, 7]: 8.94 nM

Compound: CC(C)c1ccnn1C1(C(=O)Nc2ccc(Cl)cc2OC(F)F)CCN(C[C@](C)(O)C(=O)O)CC1 [Compound 236, (2S)-3-[4-[[4-chloro-2-(difluoromethoxy)phenyl]carbamoyl]-4-(5-isopropylpyrazol-1-yl)-1-piperidyl]-2-hydroxy-2-methyl-propanoic acid]
IC50 [3, 7]: 64.8 nM

Compound: CC(C)c1c(F)cnn1C1(C(=O)Nc2ccc(Cl)cc2OC(F)F)CCN(CC(C)(C)C(=O)O)CC1 [Compound 240, 3-[4-[[4-chloro-2-(difluoromethoxy)phenyl]carbamoyl]-4-(4-fluoro-5-isopropyl-pyrazol-1-yl)-1-piperidyl]-2,2-dimethyl-propanoic acid]
IC50 [3, 7]: 23.8 nM

Compound: Cc1cccc(-c2[nH]c(C(C)(C)C)nc2-c2ccc3nccnc3c2)n1 [SB-525334, reference compound]
% Inhibition by Drug Treatment, CXCL1 protein [1, 8]: 49* % | % Inhibition by Drug Treatment, Fibronectin protein [1, 8]: 82*** % | % Inhibition by Drug Treatment, Procollagen1a1 protein [1, 8]: 69*** % | % Inhibition by Drug Treatment, MCP-1 protein ([1]; PO BID Day 10-28, vs bleomycin/vehicle): 17%

Compound: (2S)-3-[4-[[4-chloro-2- (difluoromethoxy)phenyl] carbamoyl]-4-1(65)-6- methyl-5,6-dihydro-4H- cyclopenta[c]pyrazol-1- yl]-1-piperidyl]-2- tetrahydropyran-4-yl- propanoic acid [Compound 174]
IC50 [3, 7]: 50.2 nM

The remaining compounds from weak to strong by IC50 [3, 7], led by results:

IC50 [3, 7]: 126 nM
Compound: CC(C)c1ccnn1C1(C(=O)Nc2ccc(Cl)cc2OC(F)F)CCN(C[C@@H](CN2CCOCC2)C(=O)O)CC1 [Compound 238, (2S)-2-[[4-[[4-chloro-2-(difluoromethoxy)phenyl]carbamoyl]-4-(5-isopropylpyrazol-1-yl)-1-piperidyl]methyl]-3-morpholino-propanoic acic]

IC50 [3, 7]: 62.3 nM
Compound: CC(C)c1ccnn1C1(C(=O)Nc2ccc(Cl)cc2OC(F)F)CCN(C[C@H](CN2CCOCC2)C(=O)O)CC1 [Compound 239, (2R)-2-[[4-[[4-chloro-2-(difluoromethoxy)phenyl]carbamoyl]-4-(5-isopropylpyrazol-1-yl)-1-piperidyl]methyl]-3-morpholino-propanoic acid]

IC50 [3, 7]: 25.5 nM
Compound: CO[C@H]1C[C@H]([C@@H](CN2CCC(C(=O)Nc3ccc(Cl)cc3OC(F)F)(n3nccc3C(C)C)CC2)C(=O)O)C1 [Compound 230, (2S)-3-[4-[[4-chloro-2-(difluoromethoxy)phenyl]carbamoyl]-4-(5-isopropylpyrazol-1-yl)-1-piperidyl]-2-((1r,3S)-3-methoxycyclobutyl) propanoic acid]

IC50 [3, 7]: 20.9 nM
Compound: CC(C)c1ccnn1C1(C(=O)Nc2ccc(Cl)cc2OC(F)F)CCN(C[C@@](C)(O)C(=O)O)CC1 [Compound 235, (2R)-3-[4-[[4-chloro-2-(difluoromethoxy)phenyl]carbamoyl]-4-(5-isopropylpyrazol-1-yl)-1-piperidyl]-2-hydroxy-2-methyl-propanoic acid]

IC50 [3, 7]: 16.5 nM
Compound: CC(C)c1ccnn1C1(C(=O)Nc2ccc(Cl)cc2OC(F)F)CCN(CC(CN2CCOC(F)(F)C2)C(=O)O)CC1 (stereo not drawn) [Compound 237, 2-[[4-[[4-chloro-2-(difluoromethoxy)phenyl]carbamoyl]-4-(5-isopropylpyrazol-1-yl)-1-piperidyl]methyl]-3-(2,2-difluoromorpholin-4-yl)propanoic acid]

IC50 [3, 7]: 9.54 nM
Compound: CC(C)c1ccnn1C1(C(=O)Nc2ccc(Cl)cc2OC(F)F)CCN(C[C@H](COCC(F)(F)F)C(=O)O)CC1 [Compound 234, (2R)-2-[[4-[[4-chloro-2-(difluoromethoxy)phenyl]carbamoyl]-4-(5-isopropylpyrazol-1-yl)-1-piperidyl]methyl]-3-(2,2,2-trifluoroethoxy)propanoic acid]
